# Values quoted from earlier work, collected in patent US5169665A, “Tris-hydroxymethyl alkane esters as low calorie fat mimetics” (Nabisco, Inc., priority 1990, dated 1992).
# Assays:
# pancreatic lipase = conditions: quoted from Minich, col. 4
# [1] = rats fed ad libitum, versus control animals on a normal diet
compound,measurement,setting,value
CCCCCCCC(=O)OCC(COC(=O)CCCCCCC)(COC(=O)CCCCCCC)COC(=O)CCCCCCC [pentaerythritol tetracaprylate],hydrolysis by pancreatic lipase,pancreatic lipase,"not attacked, hydrolyzed, by the enzyme pancreatic lipase"
same,food consumption,[1],consumed more than control animals on a normal diet
